Patent US12370192B2, “Azole-fused pyridazin-3(2H)-one derivatives” (TAKEDA PHARMACEUTICAL COMPANY LIMITED, priority 2019, dated 2025)

Assays:
human GPR139 receptor [1] = molecular target: T1, human GPR139 receptor (Homo sapiens, UniProt Q6DWJ6); assay: GPR139 Competition Binding (membrane-based, tritium-labeled ligand); details: T-REx-CHO membranes with human GPR139; 6.5 nM tritium-labeled ligand; 11-point curve, 30 μM maximum concentration; read-out: GPR139 Binding Affinity (pKi) (converted)
T1 construct: expressed in transfected cells; host or cells: T-REx-CHO (Thermo Fisher Scientific), doxycycline-induced
T1 sequence (Q6DWJ6 1-353): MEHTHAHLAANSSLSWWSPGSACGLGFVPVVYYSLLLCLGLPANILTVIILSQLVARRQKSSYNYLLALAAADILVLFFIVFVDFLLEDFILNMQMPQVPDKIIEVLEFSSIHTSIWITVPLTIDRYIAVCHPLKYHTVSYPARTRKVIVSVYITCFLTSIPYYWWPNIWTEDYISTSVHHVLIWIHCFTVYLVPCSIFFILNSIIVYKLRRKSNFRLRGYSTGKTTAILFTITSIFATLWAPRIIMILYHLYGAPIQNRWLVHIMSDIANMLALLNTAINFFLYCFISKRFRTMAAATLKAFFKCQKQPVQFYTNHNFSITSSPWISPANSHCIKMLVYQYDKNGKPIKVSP
Summary of the method: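 Membranes came from doxycycline-induced T-REx-CHO cells expressing human GPR139. They were incubated 20 min at room temperature with 6.5 nM tritiated ligand and compound (11 points, top 30 μM) in HEPES pH 7.3 buffer with MgCl2/CaCl2. Filter-bound counts gave Ki by four-parameter fit, reported as pKi.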

human GPR139 receptor [2] = molecular target: T1, human GPR139 receptor; assay: Measurement of GPR139 Activation Via Calcium Signaling (FLIPR, T-REx-CHO cells); type: cell-based; details: T-REx-CHO cells stably expressing human GPR139, 11-point dose response, 10 μM maximum concentration, read-out: GPR139 Potency (pEC50) (converted)
Summary of the method: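 T-REx-CHO cells stably carrying human GPR139 under tetracycline control, induced with 2 μg/mL doxycycline for 17 h at 37 °C, loaded 40 min with Calcium 5 dye plus probenecid in HBSS/HEPES pH 7.4. Agonist added as 11-point series (10 μM top); fluorescence read 1 min; pEC50 from four-parameter fit.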

| Ki (human GPR139 receptor [1]) [nM] | EC50 (human GPR139 receptor [2]) [nM] | Structure (SMILES) |
| --- | --- | --- |
| 41.7 | 141 | Cc1nn(CC(=O)NC(C)c2ccc3c(c2)CCCO3)c(=O)c2c1c(C)nn2C1CC1 (stereo not shown) [Example 61, N-(1-(chroman-6-yl)ethyl)-2-(1-cyclopropyl-3,4-dimethyl-7-oxo-1,7-dihydro-6H-pyrazolo[3,4-d]pyridazin-6-yl)acetamide] |
| 120 | 79.4 | COc1ccc([C@H](C)NC(=O)Cn2nc(C)c3c(c(C(C)C)nn3C)c2=O)cc1F [Example 10, (S)—N-(1-(3-fluoro-4-methoxyphenyl)ethyl)-2-(3-isopropyl-1,7-dimethyl-4-oxo-1H-pyrazolo[3,4-d]pyridazin-5(4H)-yl)acetamide] |
| 1780 | 15.5 | COc1ccc([C@H](C)NC(=O)Cn2ncc3ccn(C)c3c2=O)cc1 [Example 163, (S)—N-(1-(4-methoxyphenyl)ethyl)-2-(1-methyl-7-oxo-1,7-dihydro-6H-pyrrolo[2,3-d]pyridazin-6-yl)acetamide] |
| 58.9 | 224 | C[C@H](NC(=O)Cn1ncc2c(c(C3CC3)nn2C)c1=O)c1ccc(C(F)(F)F)cc1 [Example 115, (S)-2-(3-cyclopropyl-1-methyl-4-oxo-1,4-dihydro-5H-pyrazolo[3,4-d]pyridazin-5-yl)-N-(1-(4-(trifluoromethyl)phenyl)ethyl)acetamide] |
| 2240 | 708 | COc1cc([C@H](C)NC(=O)Cn2ncc3c(c(C)nn3C3CC3)c2=O)ccc1F [Example 132, (S)-2-(1-cyclopropyl-3-methyl-4-oxo-1,4-dihydro-5H-pyrazolo[3,4-d]pyridazin-5-yl)-N-(1-(4-fluoro-3-methoxyphenyl)ethyl)acetamide] |
| 1660 | 69.2 | COc1ccc([C@H](C)NC(=O)Cn2ncc3c(c(C)nn3C3CC3)c2=O)cc1 [Example 110, (S)-2-(1-cyclopropyl-3-methyl-4-oxo-1,4-dihydro-5H-pyrazolo[3,4-d]pyridazin-5-yl)-N-(1-(4-methoxyphenyl)ethyl)acetamide] |
| 38 | 17.8 | Cc1ccc([C@H](C)NC(=O)Cn2ncc3c(c(C)nn3C3CC3)c2=O)cc1F [Example 130, (S)-2-(1-cyclopropyl-3-methyl-4-oxo-1,4-dihydro-5H-pyrazolo[3,4-d]pyridazin-5-yl)-N-(1-(3-fluoro-4-methylphenyl)ethyl)acetamide] |
| 331 | 145 | Cc1ccc([C@H](C)NC(=O)Cn2nc(C)c3c(cnn3C3CC3)c2=O)c(F)c1 [Example 81, (S)-2-(1-cyclopropyl-7-methyl-4-oxo-1,4-dihydro-5H-pyrazolo[3,4-d]pyridazin-5-yl)-N-(1-(2-fluoro-4-methylphenyl)ethyl)acetamide] |
| 229 | 36.3 | Cc1ccc([C@H](C)NC(=O)Cn2nc(C)c3cnn(C)c3c2=O)cc1 [Example 39, (S)-2-(1,4-dimethyl-7-oxo-1,7-dihydro-6-pyrazolo[3,4-d]pyridazin-6-yl)-N-(1-(p-totyl)ethyl)acetamide] |
| 1660 | 251 | Cc1ccc([C@H](C)NC(=O)Cn2nc(C)c3c(cnn3C3CC3)c2=O)cc1 [Example 80, (S)-2-(1-cyclopropyl-7-methyl-4-oxo-1,4-dihydro-5H-pyrazolo[3,4-d]pyridazin-5-yl)-N-(1-(p-tolyl)ethyl)acetamide] |
| 24 | 41.7 | Cc1ccc([C@H](C)NC(=O)Cn2ncc3c(c(C(F)(F)F)nn3C)c2=O)cc1F [Example 171, (S)—N-(1-(3-fluoro-4-methylphenyl)ethyl)-2-(1-methyl-4-oxo-3-(trifluoromethyl)-1,4-dihydro-5H-pyrazolo[3,4-d]pyridazin-5-yl)acetamide] |
| 2.09 | 50.1 | Cc1ccc([C@H](C)NC(=O)Cn2nc(C)c3c(c(C4CC4)nn3C)c2=O)c(F)c1 [Example 117, (S)-2-(3-cyclopropyl-1,7-dimethyl-4-oxo-1,4-dihydro-5H-pyrazolo[3,4-d]pyridazin-5-yl)-N-(1-(2-fluoro-4-methylphenyl)ethyl)acetamide] |
| 77.6 | 47.9 | C[C@H](NC(=O)Cn1ncc2c(C3CC3)nn(C)c2c1=O)c1c(F)cccc1Cl [Example 150, (S)—N-(1-(2-chloro-6-fluorophenyl)ethyl)-2-(3-cyclopropyl-1-methyl-7-oxo-1,7-dihydro-6H-pyrazolo[3,4-d]pyridazin-6-yl)acetamide] |
| 316 | 295 | Cc1nn(C2CC2)c2cnn(CC(=O)N[C@@H](C)c3c(F)cc(F)cc3F)c(=O)c12 [Example 133, (S)-2-(1-cyclopropyl-3-methyl-4-oxo-1,4-dihydro-5H-pyrazolo[3,4-d]pyridazin-5-yl)-N-(1-(2,4,6-trifluorophenyl)ethyl)acetamide] |
| 97.7 | 107 | Cc1nn(CC(=O)NC(C)c2ccc3c(c2)OCCO3)c(=O)c2c1c(C)nn2C1CC1 (stereo not shown) [Example 105, 2-(1-cyclopropyl-3,4-dimethyl-7-oxo-1,7-dihydro-6H-pyrazolo[3,4-d]pyridazin-6-yl)-N-(1-(2,3-dihydrobenzo[b][1,4]dioxin-6-yl)ethyl)acetamide] |
| 178 | 93.3 | C[C@H](NC(=O)Cn1ncc2c(c(C(F)(F)F)nn2C)c1=O)c1ccc(C(F)(F)F)cc1 [Example 172, (S)-2-(1-methyl-4-oxo-3-(trifluoromethyl)-1,4-dihydro-5H-pyrazolo[3,4-d]pyridazin-5-yl)-N-(1-(4-(trifluoromethyl)phenyl)ethyl)acetamide] |
| 15100 | 209 | Cc1nn(CC(=O)N[C@@H](C)c2ccc(C(F)(F)F)cn2)c(=O)c2c1c(C)nn2C [Example 102, (S)—N-(1-(5-(trifluoromethyl)pyridin-2-yl)ethyl)-2-(1,3,4-trimethyl-7-oxo-1,7-dihydro-6H-pyrazolo[3,4-d]pyridazin-6-yl)acetamide] |
| 331 | 107 | Cc1nn(C23CC(C2)C3)c2cnn(CC(=O)N[C@@H](C)c3ccc(C(F)(F)F)cc3)c(=O)c12 [Example 156, (S)-2-(1-(bicyclo[1.1.1]pentan-1-yl)-3-methyl-4-oxo-1,4-dihydro-5H-pyrazolo[3,4-d]pyridazin-5-yl)-N-(1-(4-(trifluoromethyl)phenyl)ethyl)acetamide] |
| 105 | 3630 | C[C@H](NC(=O)Cn1nc(C2CC2)c2cnn(-c3ccccc3)c2c1=O)c1ccc(C(F)(F)F)cc1 [Example 44, (S)-2-(4-cyclopropyl-7-oxo-1-phenyl-1,7-dihydro-6H-pyrazolo[3,4-d]pyridazin-6-yl)-N-(1-(4-(trifluoromethyl)phenyl)ethyl)acetamide] |
| 0.447 | 69.2 | Cc1ccc([C@H](C)NC(=O)Cn2nc(C)c3c(C)nn(C4CC4)c3c2=O)c(F)c1 [Example 69, (S)-2-(1-cyclopropyl-3,4-dimethyl-7-oxo-1,7-dihydro-6H-pyrazolo[3,4-d]pyridazin-6-yl)-N-(1-(2-fluoro-4-methylphenyl)ethyl)acetamide] |
| 3.89 | 85.1 | COc1cc(Cl)ccc1C[C@H](C)NC(=O)Cn1ncc2c(c(C)cn2C2CC2)c1=O [Example 67, (S)—N-(1-(4-chloro-2-methoxyphenyl)propan-2-yl)-2-(1-cyclopropyl-3-methyl-4-oxo-1,4-dihydro-5H-pyrrolo[2,3-d]pyridazin-5-yl)acetamide] |
| 1910 | 33.1 | COc1ccc([C@H](C)NC(=O)Cn2ncc3c(c(C)nn3C)c2=O)cc1 [Example 48, (S)-2-(1,3-dimethyl-4-oxo-1,4-dihydro-5H-pyrazolo[3,4-d]pyridazin-5-yl)-N-(1-(4-methoxyphenyl)ethyl)acetamide] |
| 93.3 | 224 | Cc1nn(CC(=O)N[C@@H](C)c2ccc(OC(F)(F)F)cc2)c(=O)c2c1cnn2-c1ccccc1 [Example 5, (S)-2-(4-methyl-7-oxo-1-phenyl-1,7-dihydro-6H-pyrazolo[3,4-d]pyridazin-6-yl)-N-(1-(4-(trifluoromethoxy)phenyl)ethyl)acetamide] |
| 794 | 61.7 | Cc1nn(C2CC2)c2cnn(CC(=O)NC(C)c3ccc4c(c3)CCCO4)c(=O)c12 (stereo not shown) [Example 104, N-(1-(chroman-6-yl)ethyl)-2-(1-cyclopropyl-3-methyl-4-oxo-1,4-dihydro-5H-pyrazolo[3,4-d]pyridazin-5-yl)acetamide] |
| 126 | 166 | CC(C)c1nn(C)c2cnn(CC(=O)N[C@@H](C)c3ccc(OC(F)(F)F)cc3)c(=O)c12 [Example 50, (S)-2-(3-isopropyl-1-methyl-4-oxo-1,4-dihydro-5H-pyrazolo[3,4-d]pyridazin-5-yl)-N-(1-(4-(trifluoromethoxy)phenyl)ethyl)acetamide] |
| 5250 | 66.1 | Cc1ccc([C@H](C)NC(=O)Cn2ncc3c(cnn3C)c2=O)cc1 [Example 33, (S)-2-(1-methyl-4-oxo-1,4-dihydro-5H-pyrazolo[3,4-d]pyridazin-5-yl)-N-(1-(p-tolyl)ethyl)acetamide] |
